{"source": "paper PMC3897212", "about": "(Journal of pharmacokinetics and pharmacodynamics, 2013)", "key": {"[1]": {"assay": "Single 100 mg dose plasma pharmacokinetic study in healthy subjects", "assay_type": "in vivo", "details": "human, po"}, "[2]": {"details": "human plasma, cited from earlier work"}, "[3]": {"test_system": "brain metastases from HER2-positive breast cancer", "details": "human patients with brain metastases from HER2-positive breast cancer; cited from earlier work"}, "[4]": {"test_system": "albumin and alpha-1 acid glycoprotein", "details": "cited from earlier work"}, "[5]": {"test_system": "metastatic breast cancer cells in the brains of mice", "details": "cited from earlier work"}, "[6]": {"assay": "Time course tissue distribution / pharmacokinetic study in mice", "assay_type": "in vivo, female FVB mice", "details": "mouse; for AUC(0-t) / half-life: female, FVB, po"}, "[7]": {"assay": "Mouse PBPK model of lapatinib"}, "[8]": {"details": "patients administered lapatinib; cited from earlier work"}, "[9]": {"assay": "Human PBPK model of lapatinib"}, "[10]": {"details": "mice; owing to ABCB1- and ABCB2-mediated efflux; cited from earlier work"}, "CYP3A": {"test_system": "CYP3A", "details": "cited from earlier work"}, "[11]": {"details": "slowly perfused tissue, 30 mg/kg"}, "[12]": {"details": "slowly perfused tissue, 60 mg/kg"}, "[13]": {"details": "slowly perfused tissue, 90 mg/kg"}, "[14]": {"details": "first-order, parameter estimate (CV%) fitted to 60 mg/kg cohort"}, "[15]": {"details": "parameter estimate (CV%) fitted to 60 mg/kg cohort"}}, "note": "Like-named read-outs stand apart in the source and are kept apart here. Marks after values point to notes of the source that are not given here."}
{"smiles": "CS(=O)(=O)CCNCc1ccc(-c2ccc3ncnc(Nc4ccc(OCc5cccc(F)c5)c(Cl)c4)c3c2)o1", "note": "[lapatinib, N-{3-chloro-4-[(3-fluorobenzyl)oxy]phenyl}-6-[5-({[2-(methylsulfonyl)ethyl]amino}methyl)-2-furyl]-4-quinazolinamine]", "values": [{"measurement": "AUC(0-t)", "setting": "[1]", "result": 2.7, "unit": "µM·h"}, {"measurement": "half-life", "setting": "[1]", "result": 9.5, "unit": "h"}, {"measurement": "Observed Tmax", "setting": "[2]; 25 mg multiple dose, healthy, fasted, median (range)", "result": "2.7 (2.5–4.0) ^e h"}, {"measurement": "Observed Tmax", "setting": "[2]; 100 mg multiple dose, healthy, fasted, median (range)", "result": "3.0 (2.0–6.0) ^e h"}, {"measurement": "Observed Tmax", "setting": "[2]; 175 mg single dose, healthy, fasted, median (range)", "result": "3.0 (2.0–4.0) ^f h"}, {"measurement": "Observed Tmax", "setting": "[2]; 1,200 mg multiple dose, cancer, fasted, median (95 % CI)", "result": "3.6 (3.0–7.9) ^f h"}, {"measurement": "Observed Tmax", "setting": "[2]; 1,200 mg single dose, cancer, fasted, median (95 % CI)", "result": "3.5 (2.1–6.0) ^g h"}, {"measurement": "Observed Tmax", "setting": "[2]; 1,250 mg multiple dose, cancer, fasted, median (range)", "result": "3.0 (1.5–8.0) ^f h"}, {"measurement": "Observed Tmax", "setting": "[2]; 1,250 mg multiple dose, cancer, not fasted, median (range)", "result": "3.0 (2.6–8.0) ^f h"}, {"measurement": "Observed Tmax", "setting": "[2]; 1,500 mg multiple dose, cancer, fasted, median (range)", "result": "3.0 (0.0–12.2) ^f h"}, {"measurement": "Observed Tmax", "setting": "[2]; 1,500 mg multiple dose, cancer, not fasted, median (range)", "result": "3.4 (0.0–6.0) ^f h"}, {"measurement": "Observed Tmax", "setting": "[2]; 1,600 mg multiple dose, cancer, fasted, median (95 % CI)", "result": "5.1 (0.9–8.0) ^g h"}, {"measurement": "Observed Tmax", "setting": "[2]; 1,800 mg multiple dose, cancer, fasted, median (95 % CI)", "result": "3.9 (3.0–7.9) ^g h"}, {"measurement": "Observed Tmax", "setting": "[2]; 1,800 mg single dose, cancer, fasted, median (95 % CI)", "result": "3.9 (3.0–8.0) ^g h"}, {"measurement": "CNS antitumor activity", "setting": "[3]", "result": "modest CNS antitumor activity"}, {"measurement": "bound to albumin and alpha-1 acid glycoprotein", "setting": "[4]", "result": "> 99", "unit": "%"}, {"measurement": "Percent unbound", "setting": "[4]; plasma, value set in PBPK model", "result": 1, "unit": "%"}, {"measurement": "unbound fraction of drug in the plasma", "setting": "[4]; value set in PBPK model", "result": 0.01}, {"measurement": "burden of metastatic breast cancer cells in the brain", "setting": "[5]", "result": "reduce the burden of metastatic breast cancer cells in the brains of mice"}, {"measurement": "AUC(0-t)", "setting": "[6]; brain, 30 mg/kg", "result": 0.441, "unit": "µM·h"}, {"measurement": "AUC(0-t)", "setting": "[6]; brain, 60 mg/kg", "result": 1.31, "unit": "µM·h"}, {"measurement": "half-life", "setting": "[6]; brain, 60 mg/kg", "result": 3.12, "unit": "h"}, {"measurement": "AUC(0-t)", "setting": "[6]; brain, 90 mg/kg", "result": 2.26, "unit": "µM·h"}, {"measurement": "half-life", "setting": "[6]; brain, 90 mg/kg", "result": 1.76, "unit": "h"}, {"measurement": "AUC(0-t)", "setting": "[6]; heart, 30 mg/kg", "result": 7.16, "unit": "µM·h"}, {"measurement": "half-life", "setting": "[6]; heart, 30 mg/kg", "result": 2.59, "unit": "h"}, {"measurement": "AUC(0-t)", "setting": "[6]; heart, 60 mg/kg", "result": 26.5, "unit": "µM·h"}, {"measurement": "half-life", "setting": "[6]; heart, 60 mg/kg", "result": 3.05, "unit": "h"}, {"measurement": "AUC(0-t)", "setting": "[6]; heart, 90 mg/kg", "result": 55.2, "unit": "µM·h"}, {"measurement": "half-life", "setting": "[6]; heart, 90 mg/kg", "result": 2.32, "unit": "h"}, {"measurement": "AUC(0-t)", "setting": "[6]; intestine, 30 mg/kg", "result": 79.9, "unit": "µM·h"}, {"measurement": "half-life", "setting": "[6]; intestine, 30 mg/kg", "result": 2.79, "unit": "h"}, {"measurement": "AUC(0-t)", "setting": "[6]; intestine, 60 mg/kg", "result": 235, "unit": "µM·h"}, {"measurement": "half-life", "setting": "[6]; intestine, 60 mg/kg", "result": 3.05, "unit": "h"}, {"measurement": "AUC(0-t)", "setting": "[6]; intestine, 90 mg/kg", "result": 260, "unit": "µM·h"}, {"measurement": "half-life", "setting": "[6]; intestine, 90 mg/kg", "result": 2.55, "unit": "h"}, {"measurement": "AUC(0-t)", "setting": "[6]; kidney, 30 mg/kg", "result": 50.4, "unit": "µM·h"}, {"measurement": "half-life", "setting": "[6]; kidney, 30 mg/kg", "result": 2.53, "unit": "h"}, {"measurement": "AUC(0-t)", "setting": "[6]; kidney, 60 mg/kg", "result": 138, "unit": "µM·h"}, {"measurement": "half-life", "setting": "[6]; kidney, 60 mg/kg", "result": 3.57, "unit": "h"}, {"measurement": "AUC(0-t)", "setting": "[6]; kidney, 90 mg/kg", "result": 227, "unit": "µM·h"}, {"measurement": "half-life", "setting": "[6]; kidney, 90 mg/kg", "result": 2.51, "unit": "h"}, {"measurement": "AUC(0-t)", "setting": "[6]; liver, 30 mg/kg", "result": 84.9, "unit": "µM·h"}, {"measurement": "half-life", "setting": "[6]; liver, 30 mg/kg", "result": 2.48, "unit": "h"}, {"measurement": "half-life", "setting": "[6]; liver, 60 mg/kg", "result": 2.75, "unit": "h"}, {"measurement": "AUC(0-t)", "setting": "[6]; liver, 90 mg/kg", "result": 261, "unit": "µM·h"}, {"measurement": "half-life", "setting": "[6]; liver, 90 mg/kg", "result": 1.91, "unit": "h"}, {"measurement": "AUC(0-t)", "setting": "[6]; lung, 30 mg/kg", "result": 92.4, "unit": "µM·h"}, {"measurement": "half-life", "setting": "[6]; lung, 30 mg/kg", "result": 2.39, "unit": "h"}, {"measurement": "half-life", "setting": "[6]; lung, 60 mg/kg", "result": 3.04, "unit": "h"}, {"measurement": "AUC(0-t)", "setting": "[6]; lung, 90 mg/kg", "result": 623, "unit": "µM·h"}, {"measurement": "half-life", "setting": "[6]; lung, 90 mg/kg", "result": 1.72, "unit": "h"}, {"measurement": "AUC(0-t)", "setting": "[6]; plasma, 30 mg/kg", "result": 12, "unit": "µM·h"}, {"measurement": "half-life", "setting": "[6]; plasma, 30 mg/kg", "result": 2.73, "unit": "h"}, {"measurement": "AUC(0-t)", "setting": "[6]; plasma, 60 mg/kg", "result": 24.1, "unit": "µM·h"}, {"measurement": "half-life", "setting": "[6]; plasma, 60 mg/kg", "result": 3.42, "unit": "h"}, {"measurement": "AUC(0-t)", "setting": "[6]; plasma, 90 mg/kg", "result": 48.2, "unit": "µM·h"}, {"measurement": "half-life", "setting": "[6]; plasma, 90 mg/kg", "result": 2.36, "unit": "h"}, {"measurement": "AUC(0-t)", "setting": "[6]; [11]", "result": 2.74, "unit": "µM·h"}, {"measurement": "half-life", "setting": "[6]; [11]", "result": 3.88, "unit": "h"}, {"measurement": "AUC(0-t)", "setting": "[6]; [12]", "result": 9.52, "unit": "µM·h"}, {"measurement": "half-life", "setting": "[6]; [12]", "result": 2.57, "unit": "h"}, {"measurement": "AUC(0-t)", "setting": "[6]; [13]", "result": 18.9, "unit": "µM·h"}, {"measurement": "half-life", "setting": "[6]; [13]", "result": 1.55, "unit": "h"}, {"measurement": "dose linearity of pharmacokinetics", "setting": "[6]; all tissues, 30–90 mg/kg dose range, dose-dependent increase in AUC0–16 h and constant CL", "result": "linear pharmacokinetics"}, {"measurement": "Metabolism rate constant Intestine", "setting": "[7]; calculated as 2 % of liver metabolism", "result": "2.5 ^e h^−1"}, {"measurement": "Absorption rate constant Lumen → Intestine", "setting": "[7]; [14]", "result": "0.237 (2) h^−1"}, {"measurement": "Metabolism rate constant Liver", "setting": "[7]; [14]", "result": "127 (13) h^−1"}, {"measurement": "Partition coefficient Brain:plasma", "setting": "[7]; [15]", "result": "10 (19) Ratio"}, {"measurement": "Partition coefficient Intestine:plasma", "setting": "[7]; [15]", "result": "531 (31) Ratio"}, {"measurement": "Partition coefficient Kidney:plasma", "setting": "[7]; [15]", "result": "1,064 (18) Ratio"}, {"measurement": "Partition coefficient Liver:plasma", "setting": "[7]; [15]", "result": "12 (20) Ratio"}, {"measurement": "Partition coefficient Lung:plasma", "setting": "[7]; [15]", "result": "1,643 (19) Ratio"}, {"measurement": "Partition coefficient Slowly perfused:plasma", "setting": "[7]; [15]", "result": "65 (20) Ratio"}, {"measurement": "adverse reactions observed in clinical trials", "setting": "[8]", "result": "decreased left ventricular ejection fraction, QT prolongation, hepatotoxicity, diarrhea and interstitial lung disease/pneumonitis"}, {"measurement": "Partition coefficient Brain:plasma", "setting": "[9]; human PBPK model parameter", "result": 10, "unit": "Ratio"}, {"measurement": "Partition coefficient Intestine:plasma", "setting": "[9]; human PBPK model parameter", "result": 531, "unit": "Ratio"}, {"measurement": "Partition coefficient Kidney:plasma", "setting": "[9]; human PBPK model parameter", "result": "1,064 Ratio"}, {"measurement": "Partition coefficient Liver:plasma", "setting": "[9]; human PBPK model parameter", "result": 12, "unit": "Ratio"}, {"measurement": "Partition coefficient Lung:plasma", "setting": "[9]; human PBPK model parameter", "result": "1,643 Ratio"}, {"measurement": "Partition coefficient Slowly perfused:plasma", "setting": "[9]; human PBPK model parameter", "result": 65, "unit": "Ratio"}, {"measurement": "Metabolism rate constant Intestine", "setting": "[9]; human, calculated as 1.3 % of liver metabolism", "result": "0.975 ^f h^−1"}, {"measurement": "central nervous system (CNS) penetration", "setting": "[10]", "result": "poor central nervous system (CNS) penetration"}]}
{"smiles": "Cc1ncc2n1-c1ccc(Cl)cc1C(c1ccccc1F)=NC2", "note": "[midazolam]", "values": [{"measurement": "microsomal intrinsic clearance", "setting": "CYP3A; human liver", "result": 15800, "unit": "mL/min"}, {"measurement": "microsomal intrinsic clearance", "setting": "CYP3A; human small intestine", "result": 213.7, "unit": "mL/min"}, {"measurement": "small intestine microsomal intrinsic clearance as percent of liver", "setting": "CYP3A; human", "result": 1.35, "unit": "%"}]}
